Data: ChEMBL document CHEMBL1201862, “PubChem BioAssay data set” (2004)
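Grown in 96-well plates, cells were treated for 48 hours with each compound at five concentrations. Insufficient inhibition: endpoint recorded as highest concentration tested. At the GI50, growth is halved.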 Activity calls are given as the source filed them. Cut-off read from the data, not from the text of the source: active = GI50 up to about 1.1 µM and inactive = higher.

Legend:
Test in all cases: inhibition of tumour cell growth, NCI panel, 48 h
HCC 2998 = tested on: HCC 2998
SF-539 = tested on: SF-539
HOP-62 = tested on: HOP-62
SF-268 = tested on: SF-268
A549 = tested on: A549
KM12 = tested on: KM12
UACC-62 = tested on: UACC-62
IGROV-1 = tested on: IGROV-1
HT-29 = tested on: HT-29
COLO 205 = tested on: COLO 205
OVCAR-3 = tested on: OVCAR-3
NCI-H522 = tested on: NCI-H522
CCRF-CEM = tested on: CCRF-CEM
SR = tested on: SR

| SMILES | GI50 (HCC 2998) | GI50 (SF-539) | GI50 (HOP-62) | GI50 (SF-268) | GI50 (A549) | GI50 (KM12) | GI50 (UACC-62) | GI50 (IGROV-1) | GI50 (HT-29) | GI50 (COLO 205) | GI50 (OVCAR-3) | GI50 (NCI-H522) | GI50 (CCRF-CEM) | GI50 (SR) |
| --- | --- | --- | --- | --- | --- | --- | --- | --- | --- | --- | --- | --- | --- | --- |
| CN1CC(=O)N2Cc3ccccc3-n3cccc3C2C1 (stereo unspecified) | > 100 µM (inactive) | > 100 µM (inactive) | > 100 µM (inactive) | > 100 µM (inactive) | > 100 µM (inactive) | > 100 µM (inactive) | > 100 µM (inactive) | > 100 µM (inactive) | > 100 µM (inactive) | > 100 µM (inactive) | > 100 µM (inactive) |  |  |  |
| COc1cccc(C=O)c1[O-].COc1cccc(C=O)c1[O-].[Zn+2] | > 100 µM (inactive) | 45.2 µM (inactive) | 46.9 µM (inactive) | 55.7 µM (inactive) | > 100 µM (inactive) | > 100 µM (inactive) | 46.2 µM (inactive) | 75.2 µM (inactive) | 97.7 µM (inactive) | > 100 µM (inactive) | 32.8 µM (inactive) | > 100 µM (inactive) | 28.9 µM (inactive) | 35.6 µM (inactive) |
| N#CC1C[C@@H]2CC3(CCC2CN1C(=O)c1ccccc1)OCCO3 (stereo partly specified) | > 100 µM (inactive) | > 100 µM (inactive) | > 100 µM (inactive) | > 100 µM (inactive) | > 100 µM (inactive) | > 100 µM (inactive) | > 100 µM (inactive) | > 100 µM (inactive) | > 100 µM (inactive) | > 100 µM (inactive) | > 100 µM (inactive) |  | > 100 µM (inactive) | 0.607 µM (active) |
| CN(C)NC(=S)NC12CC3CC(CC(C3)C1)C2 | > 100 µM (inactive) | > 100 µM (inactive) | > 100 µM (inactive) | > 100 µM (inactive) | > 100 µM (inactive) | > 100 µM (inactive) | > 100 µM (inactive) | > 100 µM (inactive) | > 100 µM (inactive) | > 100 µM (inactive) | > 100 µM (inactive) | > 100 µM (inactive) | > 100 µM (inactive) |  |
| COc1ccccc1C1c2cc3c(cc2OC(O)(CO)C1C(=O)O)OCO3.COc1ccccc1C1c2cc3c(cc2OC2(O)COC(=O)C12)OCO3 (stereo unspecified) | > 100 µM (inactive) | > 100 µM (inactive) | > 100 µM (inactive) | > 100 µM (inactive) | > 100 µM (inactive) | > 100 µM (inactive) | > 100 µM (inactive) | > 100 µM (inactive) | > 100 µM (inactive) | > 100 µM (inactive) | > 100 µM (inactive) |  | 92.7 µM (inactive) | > 100 µM (inactive) |
| O=c1cc(-c2ccccc2)[nH]c2c(F)ccc(F)c12 |  | 52.8 µM (inactive) | 56 µM (inactive) | > 100 µM (inactive) | 37.9 µM (inactive) | 18.5 µM (inactive) | 30.7 µM (inactive) | > 100 µM (inactive) | 33.5 µM (inactive) | 48.1 µM (inactive) |  | 27.7 µM (inactive) | > 100 µM (inactive) | 13.3 µM (inactive) |
| CCOC1C(Br)Cn2c(=O)c3cc4ccccc4cc3c(=O)n2C1C (stereo unspecified) | 50.6 µM (inactive) | > 100 µM (inactive) | > 100 µM (inactive) | > 100 µM (inactive) | 67.3 µM (inactive) | > 100 µM (inactive) |  | > 100 µM (inactive) | 27.5 µM (inactive) | 56.6 µM (inactive) | > 100 µM (inactive) | 1.67 µM (inactive) | 50.1 µM (inactive) | 34 µM (inactive) |
| O=C1CCCCC1C1(O)C(=O)Nc2cc(F)ccc21 (stereo unspecified) | > 100 µM (inactive) | > 100 µM (inactive) | > 100 µM (inactive) | > 100 µM (inactive) | > 100 µM (inactive) | > 100 µM (inactive) | > 100 µM (inactive) | > 100 µM (inactive) | > 100 µM (inactive) | > 100 µM (inactive) |  | > 100 µM (inactive) | > 100 µM (inactive) |  |
| Cc1cccc(C)c1NC(=O)CCCC(=O)C1CCC/C1=N\NC(=O)C(=O)NN (stereo unspecified) | > 100 µM (inactive) | > 100 µM (inactive) |  | > 100 µM (inactive) | > 100 µM (inactive) | > 100 µM (inactive) |  |  | > 100 µM (inactive) | > 100 µM (inactive) | > 100 µM (inactive) |  | > 100 µM (inactive) |  |
| NC1=NNC(=O)c2nnc3c(C(=O)O)cnn3c2S1 |  | > 100 µM (inactive) | > 100 µM (inactive) | > 100 µM (inactive) | > 100 µM (inactive) | > 100 µM (inactive) | > 100 µM (inactive) | > 100 µM (inactive) | > 100 µM (inactive) | > 100 µM (inactive) | > 100 µM (inactive) | > 100 µM (inactive) | 10 µM (inactive) | > 100 µM (inactive) |
| CC(=O)Nc1ccc(/C=C2\N=C(c3ccccc3)OC2=O)cc1 | 36.1 µM (inactive) |  | > 100 µM (inactive) | > 100 µM (inactive) | > 100 µM (inactive) | 68.7 µM (inactive) | 27.2 µM (inactive) | > 31.6 µM (inactive) |  | > 100 µM (inactive) |  |  | 33.1 µM (inactive) |  |
| CCOC(=O)[C@H]1CSC[C@@H](C(=O)OC)N1 | > 100 µM (inactive) |  | > 100 µM (inactive) | > 100 µM (inactive) | > 100 µM (inactive) | > 100 µM (inactive) | > 100 µM (inactive) | > 100 µM (inactive) | > 100 µM (inactive) | > 100 µM (inactive) | > 100 µM (inactive) | > 100 µM (inactive) | > 100 µM (inactive) | > 100 µM (inactive) |
| CCOC(=O)/C=C/c1ccccn1 | > 100 µM (inactive) | > 100 µM (inactive) | > 100 µM (inactive) | > 100 µM (inactive) | > 100 µM (inactive) | > 100 µM (inactive) | > 100 µM (inactive) | > 100 µM (inactive) | > 100 µM (inactive) | > 100 µM (inactive) |  | > 100 µM (inactive) | > 100 µM (inactive) | > 100 µM (inactive) |
| O=S1(=O)c2ccccc2NC(c2ccc3ccccc3c2)CC1c1ccccc1F (stereo unspecified) | > 100 µM (inactive) | > 100 µM (inactive) | > 100 µM (inactive) | > 100 µM (inactive) | > 100 µM (inactive) | > 100 µM (inactive) | > 100 µM (inactive) | > 100 µM (inactive) | > 100 µM (inactive) | > 100 µM (inactive) | > 100 µM (inactive) | > 100 µM (inactive) | > 100 µM (inactive) |  |
| C=CN1C(=O)OC[C@@H]1c1ccccc1 | > 100 µM (inactive) | > 100 µM (inactive) | > 100 µM (inactive) | > 100 µM (inactive) | > 100 µM (inactive) | > 100 µM (inactive) | > 100 µM (inactive) | > 100 µM (inactive) | > 100 µM (inactive) | > 100 µM (inactive) | > 100 µM (inactive) | > 100 µM (inactive) | > 100 µM (inactive) |  |
| CCOc1cc2c(cnc3c4cc(OC)c(OC)cc4ccc23)cc1OC | > 100 µM (inactive) | > 100 µM (inactive) | > 100 µM (inactive) | > 100 µM (inactive) | > 100 µM (inactive) | > 100 µM (inactive) | > 100 µM (inactive) | > 100 µM (inactive) | > 100 µM (inactive) | > 100 µM (inactive) | > 100 µM (inactive) | > 100 µM (inactive) | > 100 µM (inactive) |  |
| O=C(CP(=O)(O)O)c1cccs1 | > 100 µM (inactive) | > 100 µM (inactive) | > 100 µM (inactive) | > 100 µM (inactive) | > 100 µM (inactive) | > 100 µM (inactive) | > 100 µM (inactive) | > 100 µM (inactive) | > 100 µM (inactive) | > 100 µM (inactive) | > 100 µM (inactive) | > 100 µM (inactive) | > 100 µM (inactive) |  |
| CC(=O)OCC(OC(C)=O)C(OC(C)=O)C(OC(C)=O)C(=O)CNn1c(-c2ccccc2)nc2ccc(Br)cc2c1=O (stereo unspecified) |  | > 100 µM (inactive) | > 100 µM (inactive) | > 100 µM (inactive) | > 100 µM (inactive) | > 100 µM (inactive) | 83.4 µM (inactive) |  | > 100 µM (inactive) | > 100 µM (inactive) | > 100 µM (inactive) | 46.8 µM (inactive) | > 100 µM (inactive) | > 100 µM (inactive) |
| CC(=O)N(N=O)c1ccc(N(N=O)C(C)=O)cc1 | > 100 µM (inactive) | > 100 µM (inactive) | > 100 µM (inactive) | > 100 µM (inactive) | > 100 µM (inactive) |  | > 100 µM (inactive) | > 100 µM (inactive) | > 100 µM (inactive) | > 100 µM (inactive) | > 100 µM (inactive) | > 100 µM (inactive) | > 100 µM (inactive) | > 100 µM (inactive) |
| O=C1CCSC2=C1SCc1sccc12 | > 100 µM (inactive) |  | > 100 µM (inactive) | > 100 µM (inactive) | > 100 µM (inactive) | > 100 µM (inactive) | > 100 µM (inactive) | > 100 µM (inactive) |  | > 100 µM (inactive) | > 100 µM (inactive) | > 100 µM (inactive) | > 100 µM (inactive) |  |
| COc1ccc2c(c1)C(CCN)C(=O)N2 (stereo unspecified) | > 100 µM (inactive) | > 100 µM (inactive) | > 100 µM (inactive) | > 100 µM (inactive) | > 100 µM (inactive) | > 100 µM (inactive) | > 100 µM (inactive) | > 100 µM (inactive) | > 100 µM (inactive) | > 100 µM (inactive) | > 100 µM (inactive) |  | > 100 µM (inactive) |  |
| O=C(NCCCCCCCCCCCCNC(=O)c1cnc2ccccc2n1)c1cnc2ccccc2n1 | > 100 µM (inactive) | 15.1 µM (inactive) | 20.6 µM (inactive) | > 100 µM (inactive) | 92.5 µM (inactive) | > 100 µM (inactive) | > 100 µM (inactive) | 54.3 µM (inactive) | > 100 µM (inactive) | > 100 µM (inactive) | 34.7 µM (inactive) | 19 µM (inactive) | > 100 µM (inactive) |  |
